Measured values: ChEMBL document CHEMBL3044918, “Ability of vitamins to induce downy mildew disease resistance and growth promotion in pearl millet” (2007)
The source made the active and inactive calls. The rule behind the calls is not given here.

What was measured:
[1] = test system: Cenchrus americanus; test: Increase in seed vigor in Cenchrus americanus cultivar 7042S at 20 mM incubated for 6 hr followed by sowing measured at 7-day old seedling stage relative to control; format: functional, organism-based
[2] = test system: Cenchrus americanus; test: (§1) Induction of systemic acquired resistance against Sclerospora graminicola in Cenchrus americanus cultivar 7042S assessed as protection against downy mildew disease at 20 mM applied to seeds prior to sowing followed by inoculation on 2 day old seedling measured on day 30 in green house conditions (reference value: 3%); format: functional
[3] = test system: Cenchrus americanus; test: Stimulation of seed germination in Cenchrus americanus cultivar 7042S at 20 mM incubated for 6 hr followed by sowing measured at 7-day old seedling stage (reference value: 88%); format: functional
[4] = test system: Cenchrus americanus; test: Effect on seed vigor in Cenchrus americanus cultivar 7042S assessed as vigor index at 20 mM incubated for 6 hr followed by sowing measured at 7-day old seedling stage (reference value: 990); format: functional
[5] = test system: Cenchrus americanus; test: as §1, with “and to foliar of 7” for “followed by inoculation on 2”, “seedling inoculated on day 2” for “seedling”, “field” for “green house”; format: functional
[6] = test system: Cenchrus americanus; test: Effect on growth parameter in disease-susceptible Cenchrus americanus cultivar 7042S assessed as girth of ear at 20 mM applied to seeds prior to sowing measured after 60 days (reference value: 3.6 +/- 0.9 cm); format: functional
[7] = test system: Cenchrus americanus; test: (§2) Induction of systemic acquired resistance against Sclerospora graminicola in Cenchrus americanus cultivar 7042S assessed as protection against downy mildew disease at 20 mM applied to seeds prior to sowing followed by inoculation at cleoptile stage at day 2 post seedling emergence measured on day 30 in green house conditions relative to control; format: functional
[8] = test system: Cenchrus americanus; test: as §2, with “on 2” for “at cleoptile stage at”, “old” for “2 post”, “and challenge-inoculation to the nodal tiller” for “emergence”, “60” for “30”, “condition” for “conditions”; format: functional
[9] = test system: Cenchrus americanus; test: as §2, with “day 1” for “day 2”; format: functional
[10] = test system: Cenchrus americanus; test: Effect on growth parameter in disease-susceptible Cenchrus americanus cultivar 7042S assessed as increase in prodcutive tillers at 20 mM applied to seeds prior to sowing measured after 60 days relative to control; format: functional, organism-based
[11] = test system: Cenchrus americanus; test: Effect on growth parameter in disease-susceptible Cenchrus americanus cultivar 7042S assessed as length of ear at 20 mM applied to seeds prior to sowing measured after 60 days (reference value: 9.4 +/- 0.8 cm); format: functional
[12] = test system: Cenchrus americanus; test: as §2, with “day 3” for “day 2”; format: functional
[13] = test system: Cenchrus americanus; test: as §2, with “day 6” for “day 2”; format: functional
[14] = test system: Cenchrus americanus; test: Induction of systemic acquired resistance against Sclerospora graminicola in Cenchrus americanus cultivar 7042S assessed as protection against downy mildew disease at 20 mM applied to seeds prior to sowing followed by inoculation on 2 day old seedling and challenge-inoculation to the inflorescence primordia at boot leaf stage measured on day 60 in green house condition relative to control; format: functional
[15] = test system: Cenchrus americanus; test: Effect on growth parameter in disease-susceptible Cenchrus americanus cultivar 7042S assessed as weight of 1000 seeds at 20 mM applied to seeds prior to sowing (reference value: 7.4 +/- 1.4 g); format: functional
[16] = test system: Cenchrus americanus; test: Stimulation of flowering in downy mildew disease-susceptible Cenchrus americanus cultivar 7042S assessed as days required for 50% flowering at 20 mM applied to seeds prior to sowing measured after 60 days (reference value: 44 +/- 0.7 days ); format: functional
[17] = test system: Cenchrus americanus; test: Effect on growth parameter in disease-susceptible Cenchrus americanus cultivar 7042S assessed as yield at 20 mM applied to seeds prior to sowing (reference value: 1209 +/- 9 kg/ha); format: functional
[18] = test system: Cenchrus americanus; test: as §2, with “day 4” for “day 2”; format: functional
[19] = test system: Cenchrus americanus; test: (§3) Induction of systemic acquired resistance against Sclerospora graminicola in Cenchrus americanus cultivar 7042S assessed as protection against downy mildew disease at 20 mM applied to foliar of 7 day old seedling inoculated on day 2 measured on day 30 in field conditions (reference value: 2%); format: functional
[20] = test system: Cenchrus americanus; test: as §1, with “field” for “green house”; format: functional
[21] = test system: Cenchrus americanus; test: Stimulation of growth in downy mildew disease-susceptible Cenchrus americanus cultivar 7042S assessed as plant height at 20 mM applied to seeds prior to sowing measured after 60 days (reference value: 58.5 cm); format: functional
[22] = test system: Cenchrus americanus; test: as §2, with “day 5” for “day 2”; format: functional
[23] = test system: Cenchrus americanus; test: as §1, with “6 g/kg” for “20 mM”, “condition(reference” for “conditions (reference”; format: functional
[24] = test system: Cenchrus americanus; test: as §3, with “6 g/kg” for “20 mM”, “applied to seeds prior to sowing and” for “applied”, “3%)” for “2%)”; format: functional
[25] = test system: Cenchrus americanus; test: as §1, with “6 g/kg” for “20 mM”, “field” for “green house”; format: functional
[26] = test system: Cenchrus americanus; test: Induction of systemic acquired resistance against Sclerospora graminicola in Cenchrus americanus cultivar 7042S assessed as protection against downy mildew disease at 6 g/kg applied to foliar of 7 day old seedling inoculated on day 2 measured on day 30 in field conditions (reference value: 2%); format: functional

Q: Which Activity [1] does the source give for `O=C(O)CCCC[C@@H]1SC[C@@H]2NC(=O)N[C@@H]21` [BIOTIN] here?
A: The Activity was “Active”.

Q: And the Activity [2]?
A: The Activity was 51%.

Q: And the Activity [3]?
A: The Activity was 91%.

Q: What does the source list for `O=C(O)c1cccnc1` [NIACIN]?
A: Vigour_index [4]: 1217; Activity [5]: 65%; Activity [6]: 4 cm; Activity [7]: 51%; Activity [8]: 69%; Activity [9]: 45%; Activity [10]: Active; Activity [11]: 11.8 cm; Activity [12]: 56%; Activity [2]: 63%; Activity [13]: 63%; Activity [14]: 71%; Activity [15]: 10.97 g; Time [16]: 42 days; Activity [3]: 92%; Activity [17]: 1306 kg/ha; Activity [18]: 63%; Activity [19]: 60%; Activity [20]: 63%; Activity [21]: 66 cm; Activity [22]: 63%

Q: For `CC1(S(=O)(=O)[O-])CC(=O)c2ccccc2C1=O.[Na+]` (stereo not given) [MENADIONE SODIUM BISULPHITE], which Vigour_index [4] is on record?
A: The Vigour_index was 1312.

Q: And the Activity [5]?
A: Its Activity is 72%.

Q: What about the Activity [6] of the same compound?
A: The Activity was 4.1 cm.

Q: And the Activity [7]?
A: The Activity was 51%.

Q: What about the Activity [8] of the same compound?
A: The Activity was 77%.

Q: And the Activity [9]?
A: Its Activity is 46%.

Q: What about the Activity [10] of the same compound?
A: Its Activity is “Active”.

Q: And the Activity [11]?
A: The Activity was 12 cm.

Q: What about the Activity [12] of the same compound?
A: The Activity was 65%.

Q: What about the Activity [2] of the same compound?
A: Its Activity is 73%.

Q: What about the Activity [13] of the same compound?
A: The Activity was 74%.

Q: What about the Activity [14] of the same compound?
A: The Activity was 79%.

Q: And the Activity [15]?
A: Its Activity is 11.74 g.

Q: And the Time [16]?
A: Its Time is 40 days.

Q: What about the Activity [3] of the same compound?
A: Its Activity is 93%.

Q: And the Activity [17]?
A: Its Activity is 1328 kg/ha.

Q: And the Activity [18]?
A: The Activity was 73%.

Q: And the Activity [19]?
A: Its Activity is 66%.

Q: And the Activity [20]?
A: The Activity was 68%.

Q: What about the Activity [21] of the same compound?
A: Its Activity is 68 cm.

Q: And the Activity [22]?
A: Its Activity is 74%.

Q: What does the source list for `Nc1nc(=O)c2nc(CNc3ccc(C(=O)N[C@@H](CCC(=O)O)C(=O)O)cc3)cnc2[nH]1` [FOLIC ACID]?
A: Activity [1]: Active; Activity [2]: 42%; Activity [3]: 90%

Q: For `COCC(=O)N(c1c(C)cccc1C)C(C)C(=O)OC` (stereo not given) [METALAXYL], which Activity [23] is on record?
A: Its Activity is 92%.

Q: What about the Activity [24] of the same compound?
A: The Activity was 92%.

Q: What about the Activity [25] of the same compound?
A: The Activity was 92%.

Q: And the Activity [26]?
A: The Activity was 91%.

Q: With `Cc1ncc(CO)c(CO)c1O` [PYRIDOXINE] as the compound, how does the Activity [1] read?
A: The Activity was “Active”.

Q: And the Activity [2]?
A: The Activity was 44%.

Q: And the Activity [3]?
A: Its Activity is 91%.

Q: What does the source list for `Cc1cc2nc3c(=O)[nH]c(=O)nc-3n(C[C@H](O)[C@H](O)[C@H](O)CO)c2cc1C` [RIBOFLAVIN]?
A: Activity [5]: 67%; Activity [6]: 3.9 cm; Activity [7]: 50%; Activity [8]: 64%; Activity [9]: 43%; Activity [10]: Active; Activity [11]: 11.4 cm; Activity [12]: 55%; Activity [2]: 62%; Activity [13]: 63%; Activity [14]: 69%; Activity [15]: 9.5 g; Time [16]: 43 days; Activity [3]: 92%; Activity [17]: 1281 kg/ha; Activity [18]: 63%; Activity [19]: 61%; Activity [20]: 61%; Activity [21]: 62 cm; Activity [22]: 63%
